# Reference: patent publication US8697683B2, “Azetidinyl diamides as monoacylglycerol lipase inhibitors” (Janssen Pharmaceutica, NV, priority 2009, dated 2014)
# Substitutions are numbered along the chain they refer to. Read-outs that look alike come from different tables or passages of the source.
# Key:
# [1] = biological target: T1, MGL (Rattus norvegicus, UniProt Q8R431); experiment: 2-AG Accumulation Assay (rat brain homogenate); format: biochemical; details: compound 1 μM, percent of vehicle 2-AG accumulation
# T1 construct: one g rat brain was homogenized
# T1 sequence (Q8R431 1-303): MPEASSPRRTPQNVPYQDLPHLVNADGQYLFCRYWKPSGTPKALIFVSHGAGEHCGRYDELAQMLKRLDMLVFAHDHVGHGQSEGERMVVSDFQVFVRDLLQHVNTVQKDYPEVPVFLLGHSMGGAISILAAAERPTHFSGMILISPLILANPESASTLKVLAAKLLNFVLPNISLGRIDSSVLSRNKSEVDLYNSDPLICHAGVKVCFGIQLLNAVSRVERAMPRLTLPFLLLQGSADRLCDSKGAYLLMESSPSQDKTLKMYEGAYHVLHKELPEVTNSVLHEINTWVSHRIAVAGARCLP
# [2] = tested on: CFA-induced thermal hypersensitivity; experiment: CFA-Induced Paw Radiant Heat Hypersensitivity; format: in vivo; details: rat, 30 mg/kg p.o., HPβCD vehicle; for Method 1: peak % reversal: group mean values, maximum at any time point up to 180 or 300 min
# Procedure: A radiant thermal stimulus (beam of light) was then focused through the glass onto the plantar surface of each hind paw in turn. […] An initial (baseline) response latency to the thermal stimulus was recorded for each animal prior to the injection of complete Freund's adjuvant (CFA). 24 h following intraplantar CFA injection, the response latency of the animal to the thermal stimulus was then re-evaluated and compared to the animal's baseline response time. […] Immediately following the post-CFA latency assessment, the indicated test compound or vehicle was administered orally. […] More specifically: For all compounds, the % R of hypersensitivity was calculated using the mean value for groups of animals at each time point according to the following formula: % reversal=[(group treatment response−group CFA response)/(group baseline response−group CFA response)]×100 Results are given for the maximum % reversal observed for each compound at any time point tested. For some compounds, the % R of hypersensitivity was calculated separately for each animal according to the following formula: % reversal=[(individual treatment response−individual CFA response)/(individual baseline response−individual CFA response)]×100. Results are given as a mean of the maximum % reversal values calculated for each individual animal.
# [3] = biological target: T2, purified wild type MGL (wt-MGLL 6H-11-313) (Homo sapiens, UniProt Q99685)
# T2 sequence (Q99685 1-303): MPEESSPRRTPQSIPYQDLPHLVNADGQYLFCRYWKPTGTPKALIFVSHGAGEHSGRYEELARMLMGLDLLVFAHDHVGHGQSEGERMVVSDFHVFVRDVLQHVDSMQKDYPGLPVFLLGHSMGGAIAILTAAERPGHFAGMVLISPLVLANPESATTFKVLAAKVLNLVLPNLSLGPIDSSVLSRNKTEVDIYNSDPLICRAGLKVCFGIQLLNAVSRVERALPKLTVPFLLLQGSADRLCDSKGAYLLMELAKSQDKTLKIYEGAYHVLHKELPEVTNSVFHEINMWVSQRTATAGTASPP
# [4] = biological target: T3, mutant MGL (Homo sapiens, UniProt Q99685, L169S/L176S); experiment: MGL ThermoFluor Assay-Mutant
# T3 sequence (Q99685 1-303 L169S/L176S): T2 sequence (Q99685 1-303) with L169S, L176S
# Procedure: The ThermoFluor (TF) assay is a 384-well plate-based binding assay that measures thermal stability of proteins^1,2. […] TF dye used in all experiments was 1,8-ANS (Invitrogen: A-47). Final TF assay conditions used for MGL studies were 0.07 mg/ml of mutant MGL, 100 μM ANS, 200 mM NaCl, 0.001% Tween-20 in 50 mM PIPES (pH=7.0).
# Screening compound plates contained 100% DMSO compound solutions at a single concentration. […] Columns 12 and 24 were used as DMSO reference and contained no compound. […] Following compound dispension, protein and dye solutions were added to achieve the final assay volume of 3 μL.
# Bar-coded assay plates were robotically loaded onto a thermostatically controlled PCR-type thermal block and then heated from 40 to 90° C. degrees at a ramp-rate of 1° C./min for all experiments. Fluorescence was measured by continuous illumination with UV light (Hamamatsu LC6), supplied via fiber optics and filtered through a band-pass filter (380-400 nm; >60D cutoff). Fluorescence emission of the entire 384-well plate was detected by measuring light intensity using a CCD camera (Sensys, Roper Scientific) filtered to detect 500±25 nm, resulting in simultaneous and independent readings of all 384 wells. A single image with 20-sec exposure time was collected at each temperature, and the sum of the pixel intensity in a given area of the assay plate was recorded vs temperature and fit to standard equations to yield the Tm^1. • 1.
# For some experiments, quantitative NMR spectroscopy (qNMR) was used to measure concentration of the initial 100% DMSO compound solutions and, using the same fitting method, qKd values were determined
# [5] = read-out: MGL wild type inh IC50, substrate 4MU-B 10 μM, 37° C.
# [6] = read-out: MGL mutant ThermoFluor Kd, ThermoFluor thermal stability binding assay
# [7] = read-out: MGL mutant ThermoFluor qKd (μM) (using qNMR conc.), ThermoFluor, compound concentration measured by qNMR
# [8] = read-out: MGL wild type inh IC50, 4MU-B substrate 10 μM, 37° C.
# [9] = read-out: MGL wild type inh IC50, substrate 4MU-B 10 μM, enzyme 5 nM, 37° C.
# [10] = read-out: MGL mutant ThermoFluor qKd (μM) (using qNMR conc.), compound concentration measured by quantitative NMR (qNMR)
# [11] = read-out: MGL mutant ThermoFluor Kd, 0.07 mg/ml, fit of concentration-response of Tm
molecule,measurement,setting,value
"5-[2-(4-Chlorophenyl)-1-methyl-vinyl]-1-(2,4-dichloro-phenyl)-4-methyl-1H-pyrazole-3-carboxylic acid [Cpd 1010]",Rat Brain 2AG % VehCntrl (%) @1 μM,[1],1953%
same,Method 1: peak % reversal,[2],23.4%
same,IC50,[3]; [5],< 5 nM
same,Kd,[4]; [6],0.017 µM
same,Kd,[4]; [7],0.04 µM
O=C(c1ccccc1)N1CCN(C2CN(C(=O)c3ccc(Oc4cccc(F)n4)cc3)C2)CC1 [Cpd 522],IC50,[3]; [8],2680 nM
same,Kd,[4]; [6],4.71 µM
O=C(c1ccccc1)N1CC(N2CCN(C(=O)c3cc4cc(Cl)ccc4o3)CC2)C1 [Cpd 524],IC50,[3]; [5],4370 nM
same,Kd,[4]; [6],1.67 µM
COc1cncc(Oc2ccc(C(=O)N3CC(N4CCN(C(=O)c5ccccc5)CC4)C3)cc2)c1 [Cpd 533],Kd,[4]; [6],10 µM
O=C(c1ccccc1)N1CCN(C2CN(C(=O)c3ccc4c(c3)c(F)cn4-c3ccccc3)C2)CC1 [Cpd 589],IC50,[3]; [5],146 nM
O=C(c1ccccc1)N1CCN(C2CN(C(=O)c3ccc4c(ccn4-c4ccccc4)c3F)C2)CC1 [Cpd 632],IC50,[3]; [5],281 nM
same,Kd,[4]; [7],0.037 µM
Cc1sc(C(=O)N2CC(N3CCN(C(=O)c4nccs4)CC3)C2)cc1Br [Cpd 745],IC50,[3]; [9],342 nM
same,Kd,[4]; [10],0.283 µM
Cc1c(C(=O)N2CCN(C3CN(C(=O)c4nccs4)C3)CC2)n(C)c2ccc(Cl)cc12 [Cpd 762],IC50,[3]; [5],632 nM
same,Kd,[4]; [7],1 µM
O=C(c1ccc(Oc2cccc(Cl)c2)nc1)N1CC(N2CCN(C(=O)c3cscn3)CC2)C1 [Cpd 803],IC50,[3]; [5],1870 nM
same,Kd,[4]; [6],2.13 µM
O=C(c1nccs1)N1CCN(C2CN(C(=O)c3cccc4c3CN(c3ccccc3)CC4)C2)CC1 [Cpd 805],IC50,[3]; [8],2000 nM
same,Kd,[4]; [11],6.41 µM
O=C(c1cc2cc(Br)ccc2o1)N1CC(N2CCN(C(=O)c3nccs3)CC2)C1 [Cpd 812],IC50,[3]; [9],2190 nM
same,Kd,[4]; [11],0.644 µM
Cc1cc2nc(C(=O)N3CC(N4CCN(C(=O)c5nccs5)CC4)C3)cn2cc1Br [Cpd 852],IC50,[3]; [9],8080 nM
same,Kd,[4]; [7],1.98 µM
O=C(c1ccc(SCc2cccc(C(F)(F)F)c2)cc1)N1CC(N2CCN(C(=O)c3cscn3)CC2)C1 [Cpd 975],IC50,[3]; [8],162 nM
same,Kd,[4]; [6],2 µM
O=C(c1ccc(OCc2cccc(Br)n2)cc1)N1CC(N2CCN(C(=O)C(F)(F)F)CC2)C1 [Cpd 984],IC50,[3]; [8],2500 nM
same,Kd,[4]; [7],1.43 µM
O=C(c1ccc(-c2cccc(C(F)(F)F)c2)c(Cl)c1)N1CC(N2CCN(C(=O)c3cscn3)CC2)C1 [Cpd 1102],Rat Brain 2AG % VehCntrl (%) @1 μM,[1],878%
same,Method 1: peak % reversal,[2],38%
same,Method 2: peak % reversal,"[2]; mean of individual animal maximum values, up to 180 or 300 min",45.3%
same,Kd,[4]; [11],0.006 µM
Cn1nccc1-c1ccc2cc(C(=O)N3CC(N4CCN(C(=O)c5nccs5)CC4)C3)[nH]c2c1 [Cpd 1241],IC50,[3]; [8],460 nM
same,Kd,[4]; [10],0.638 µM
COc1ccc(-c2cccc(C(=O)N3CC(N4CCN(C(=O)c5cscn5)CC4)C3)c2)cc1 [Cpd 1250],IC50,[3]; [5],638 nM
same,Kd,[4]; [6],2 µM
O=C(c1nccs1)N1CCN(C2CN(C(=O)c3cccc4nc(-c5ccccc5)[nH]c34)C2)CC1 [Cpd 1255],Rat Brain 2AG % VehCntrl (%) @1 μM,[1],147%
same,IC50,[3]; [8],769 nM
same,Kd,[4]; [11],0.048 µM
O=C(c1nccs1)N1CCN(C2CN(C(=O)c3nn(-c4ccc(Cl)cc4Cl)c4c3CCCC4)C2)CC1 [Cpd 1267],IC50,[3]; [5],1120 nM
same,Kd,[4]; [7],0.741 µM
O=C(c1nc2cc(-c3ccc(OC(F)(F)F)cc3)ccc2[nH]1)N1CC(N2CCN(C(=O)c3nccs3)CC2)C1 [Cpd 1303],IC50,[3]; [8],5110 nM
same,Kd,[4]; [10],7.12 µM
O=C(c1ccc(-c2ccc(Cl)cc2)[nH]1)N1CC(N2CCN(C(=O)c3nccs3)CC2)C1 [Cpd 1307],IC50,[3]; [9],8780 nM
same,Kd,[4]; [6],4.21 µM
O=C(c1ccc[nH]1)N1CCN(C2CN(C(=O)c3nn(-c4ccc(Cl)cc4Cl)c4c3CCCC4)C2)CC1 [Cpd 1309],IC50,[3]; [5],9360 nM
same,Kd,[4]; [7],6.54 µM
"O=C(c1ccc2c(-c3cccc(C(F)(F)F)c3)c[nH]c2c1)N1CC(N2CCN(C(=O)c3nccs3)CC2)C1 [Cpd 1341, 6-({3-[4-(1,3-Thiazol-2-ylcarbonyl)piperazin-1-yl]azetidin-1-yl}carbonyl)-3-[3-(trifluoromethyl)phenyl]-1H-indole]",Rat Brain 2AG % VehCntrl (%) @1 μM,[1],1149%
"O=C(c1nccs1)N1CCN(C2CN(C(=O)c3ccc4c(ccn4-c4ccc(F)cc4)c3F)C2)CC1 [Cpd 1348, 4-Fluoro-1-(4-fluorophenyl)-5-({3-[4-(1,3-thiazol-2-ylcarbonyl)piperazin-1-yl]azetidin-1-yl}carbonyl)-1H-indole]",Rat Brain 2AG % VehCntrl (%) @1 μM,[1],1428%
"O=C(c1ccc2c(ccn2-c2cccc(C(F)(F)F)c2)c1)N1CC(N2CCN(C(=O)c3nccs3)CC2)C1 [Cpd 1356, 5-({3-[4-(1,3-Thiazol-2-ylcarbonyl)piperazin-1-yl]azetidin-1-yl}carbonyl)-1-[3-(trifluoromethyl)phenyl]-1H-indole]",Rat Brain 2AG % VehCntrl (%) @1 μM,[1],1420%
"O=C(c1ccc2c(ccn2-c2ccc(C(F)(F)F)cc2)c1)N1CC(N2CCN(C(=O)c3nccs3)CC2)C1 [Cpd 1357, 5-({3-[4-(1,3-Thiazol-2-ylcarbonyl)piperazin-1-yl]azetidin-1-yl}carbonyl)-1-[4-(trifluoromethyl)phenyl]-1H-indole]",Rat Brain 2AG % VehCntrl (%) @1 μM,[1],2570%
"O=C(c1ccc2c(ccn2-c2ccc(F)cc2)c1)N1CC(N2CCN(C(=O)c3cscn3)CC2)C1 [Cpd 1358, 1-(4-Fluorophenyl)-5-({3-[4-(1,3-thiazol-4-ylcarbonyl)piperazin-1-yl]azetidin-1-yl}carbonyl)-1H-indole]",Rat Brain 2AG % VehCntrl (%) @1 μM,[1],1183%
"O=C(c1ccc2c(ccn2-c2ccc(C(F)(F)F)cc2)c1)N1CC(N2CCN(C(=O)c3cscn3)CC2)C1 [Cpd 1359, 5-({3-[4-(1,3-Thiazol-4-ylcarbonyl)piperazin-1-yl]azetidin-1-yl}carbonyl)-1-[4-(trifluoromethyl)phenyl]-1H-indole]",Rat Brain 2AG % VehCntrl (%) @1 μM,[1],1016%
"Cc1nc(-c2cccc(C(F)(F)F)c2)sc1C(=O)N1CC(N2CCN(C(=O)c3nccs3)CC2)C1 [Cpd 1407, 1-[1-({4-Methyl-2-[3-(trifluoromethyl)phenyl]-1,3-thiazol-5-yl}carbonyl)azetidin-3-yl]-4-(1,3-thiazol-2-ylcarbonyl)piperazine]",Rat Brain 2AG % VehCntrl (%) @1 μM,[1],1287%
"O=C(c1ccc2c(ccn2-c2cccc(C(F)(F)F)c2)c1)N1CC(N2CCN(C(=O)c3cscn3)CC2)C1 [Cpd 1408, 5-({3-[4-(1,3-Thiazol-4-ylcarbonyl)piperazin-1-yl]azetidin-1-yl}carbonyl)-1-[3-(trifluoromethyl)phenyl]-1H-indole]",Rat Brain 2AG % VehCntrl (%) @1 μM,[1],1475%
O=C(c1cn2cc(Cl)cc(Br)c2n1)N1CC(N2CCN(C(=O)c3nccs3)CC2)C1 [Cpd 1452],IC50,[3]; [9],> 16700 nM
same,Kd,[4]; [10],5.42 µM
O=C(c1nccs1)N1CCN(C2CN(C(=O)c3c[nH]nc3-c3ccccc3)C2)CC1 [Cpd 1475],IC50,[3]; [9],> 16700 nM
same,Kd,[4]; [11],> 31.2 µM
O=C(c1ccccc1)N1CCN(C2CN(C(=O)c3cc4cc(Br)ccc4o3)C2)CC1 [Cpd 1492],IC50,[3]; [9],> 16700 nM
same,Kd,[4]; [11],18.8 µM
O=C(c1ccc(-c2ccccc2)cc1)N1CC(N2CCN(C(=O)c3ccccc3)CC23CC3)C1 [Cpd 1499],IC50,[3]; [9],> 16700 nM
